pEC50: −log10 of the molar value.
target: T1, mouse RORγ (Mus musculus, UniProt P51450); test: Luciferase reporter gene assay of inhibitory effect against RORγ transcriptional activity (GAL4-mRORγ plasmid in CHO cells); assay type: cell-based; details: read-out: LUC EC50 (μM) mRORg
T1 construct: mouse, NM_011281.2 and from Ile251 to Lys516; expressed in transfected cells; host or cells: CHO cells (transient co-transfection with pG5-Luc reporter)
T1 sequence (P51450 251-516): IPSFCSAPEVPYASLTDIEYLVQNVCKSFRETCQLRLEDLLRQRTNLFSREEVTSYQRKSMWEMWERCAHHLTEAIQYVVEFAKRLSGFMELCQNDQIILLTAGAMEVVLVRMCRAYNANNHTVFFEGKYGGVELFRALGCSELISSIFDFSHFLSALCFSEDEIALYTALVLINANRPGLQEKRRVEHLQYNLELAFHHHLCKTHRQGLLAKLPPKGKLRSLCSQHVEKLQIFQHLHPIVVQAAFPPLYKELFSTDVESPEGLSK
Outline: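 CHO cells transiently co-transfected with GAL4-mouse RORγ LBD (Ile251–Lys516) and GAL4-dependent luciferase reporter; eight compound concentrations, 0.1% DMSO, 2 days at 37 °C. Luminescence as %-of-vehicle control; EC50 by curve fit, cytotoxic concentrations excluded.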

SMILES	EC50
Cc1ccc(NC(=O)CCc2nnc(CCC3CCCCC3)n2C2CCC2)c(C)c1 [Example F-112]	< 3 µM
C=CCC(CC(=O)Nc1cccc(Cl)c1C)c1nnc(CCCC(C)C)n1C1CC1 (racemic) [Example F-197]	< 3 µM
Cc1ccc(NC(=O)C(C)C(CCO)c2nnc([C@H]3C[C@@H](CC(C)C)C3)n2C2CC2)c(C)c1 (single isomer, unassigned) [Example F-493]	< 3 µM
Cc1c(Cl)cccc1NC(=O)CCc1nnc(CCCC(C)(C)C)n1C1CC1 [Example F-181]	< 3 µM
CC(=O)N1C[C@H](C(=O)Nc2ccc(C)cc2C)[C@@H](c2nnc(CCCC(C)(C)C)n2CC(F)(F)F)C1 (racemic) [Example F-356]	< 3 µM
CC(C)CCc1nnc(CCC(=O)NC[C@H](O)c2ccccc2)n1C1CC1 [Example F-103]	> 3 µM
Cc1c(Cl)cccc1NC(=O)CCc1nnc(CN2C(=O)c3ccccc3C2=O)n1C1CC1 [Example F-209]	> 3 µM

same assay, conditions: read-out: LUC EC50 mRORg

SMILES	pEC50
Cc1ccc(NC(=O)C[C@H](CC(O)C(F)(F)F)c2nnc([C@H]3C[C@@H](CC(C)C)C3)n2C2CC2)c(C)c1 (single isomer, unassigned) [Example F-622]	> 5.52
Cc1ccc(NC(=O)C[C@H](CCO)c2nnc(C3CC4(CCC(C)(C)CC4)C3)n2C2CC2)c(C)c1 [Example F-602]	> 5.52
Cc1ccc(NC(=O)[C@H]2CN(S(=O)(=O)C(F)(F)F)C[C@@H]2c2nnc(CCCC(C)(C)C)n2C2CC2)c(C)c1 (racemic) [Example F-527]	> 5.52
Cc1cc(NC(=O)C[C@H](CC(=O)O)c2noc([C@H]3C[C@@H](CC(C)C)C3)c2C2CC2)n(C)n1 [Example F-669]	> 5.52
Cc1c(F)cccc1NC(=O)C[C@H](CCO)c1nnc([C@H]2C[C@@H](CC(F)(F)F)C2)n1C1CC1 [Example F-589]	< 5.52
Cc1ccc(NC(=O)C[C@H](CCCO)c2noc([C@H]3C[C@@H](CC(C)(C)C)C3)c2C2CC2)c(C)n1 [Example F-689]	> 5.52
Cc1ccc(NC(=O)C[C@H](CCC(=O)O)n2nnc([C@H]3C[C@@H](CC(C)(C)C)C3)c2C2CC2)c(F)c1 [Example F-703]	> 5.52
Cc1ccc(NC(=O)CCc2noc(CCCC(C)(C)C)c2C2CC2)c(Cl)c1 [Example F-729]	> 5.52
Cc1ccc(NC(=O)CC(CC(=O)N2CCCC2)c2nnc([C@H]3C[C@@H](CC(C)C)C3)n2C2CC2)c(C)c1 (mixture of isomers) [Example F-501]	> 5.52
COc1c(C)ccc(NC(=O)C[C@H](CCCO)c2noc([C@H]3C[C@@H](CC(C)(C)C)C3)c2C2CC2)c1C [Example F-696]	> 5.52
Cc1ccc(NC(=O)C[C@H](OC(C)C)c2nnc([C@H]3C[C@@H](CC(C)C)C3)n2C2CC2)c(C)c1 [Example F-558]	> 5.52
Cc1ccc(NC(=O)C[C@H](CC(F)(F)F)c2nnc(-c3cc(CC(C)C)on3)n2C2CC2)c(C)c1 [Example F-567]	> 5.52
Cc1ccc(NC(=O)C[C@H](CC(C)C)c2noc(-c3cc(CC(C)C)on3)c2C2CC2)c(C)c1 [Example F-635]	> 5.52
Cc1ccc(NC(=O)CCc2noc(C3(CCO)CC(CC(C)(C)C)C3)c2C2CC2)c(Cl)c1 (mixture of isomers) [Example F-742]	< 5.52
Cc1ccc(NC(=O)CCc2noc(C3(CO)CC(CC(C)(C)C)C3)c2C2CC2)c(Cl)c1 (mixture of isomers) [Example F-730]	> 5.52
Cc1ccc(NC(=O)C[C@H](CCC(=O)O)c2noc([C@H]3C[C@@H](CCc4ccccc4)C3)c2C2CC2)c(Cl)c1 [Example F-700]	> 5.52
COc1cc(C)ccc1CNC(=O)CCc1noc(C23CC4CC(CC(C4)C2)C3)c1C1CC1 [Example F-735]	> 5.52
Cc1ccc(NC(=O)C[C@H](CCO)c2nnc(C3CC4(CCC(F)(F)CC4)C3)n2C2CC2)c(C)c1 [Example F-619]	> 5.52
Cc1ccc(NC(=O)[C@H]2CN(CC(=O)N(C)C)C[C@@H]2c2nnc([C@H]3C[C@@H](CC(C)(C)C)C3)n2C2CC2)c(C)c1 [Example F-652]	> 5.52

target: T2, human RORγ (Homo sapiens, UniProt P51449); test: Luciferase reporter gene assay of inhibitory effect against RORγ transcriptional activity (GAL4-hRORγ plasmid in CHO cells); assay type: cell-based; details: read-out: LUC EC50 (μM) hRORg
T2 construct: human, NM_005060.3 and from Ser253 to Lys518; expressed in transfected cells; host or cells: CHO cells (transient co-transfection with pG5-Luc reporter)
T2 sequence (P51449 253-518): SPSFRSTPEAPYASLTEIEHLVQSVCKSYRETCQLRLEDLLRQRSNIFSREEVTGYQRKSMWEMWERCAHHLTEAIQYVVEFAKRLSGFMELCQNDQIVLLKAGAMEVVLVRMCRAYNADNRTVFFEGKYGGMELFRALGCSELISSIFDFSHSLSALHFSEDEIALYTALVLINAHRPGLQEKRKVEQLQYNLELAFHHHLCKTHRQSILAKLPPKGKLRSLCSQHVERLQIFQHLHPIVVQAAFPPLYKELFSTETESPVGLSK

SMILES	EC50
Cc1ccc(NC(=O)CCc2nnc(CCC3CCCCC3)n2C2CCC2)c(C)c1 [Example F-112]	> 3 µM
C=CCC(CC(=O)Nc1cccc(Cl)c1C)c1nnc(CCCC(C)C)n1C1CC1 (racemic) [Example F-197]	< 3 µM
Cc1ccc(NC(=O)C(C)C(CCO)c2nnc([C@H]3C[C@@H](CC(C)C)C3)n2C2CC2)c(C)c1 (single isomer, unassigned) [Example F-493]	< 3 µM
Cc1c(Cl)cccc1NC(=O)CCc1nnc(CCCC(C)(C)C)n1C1CC1 [Example F-181]	< 3 µM
CC(=O)N1C[C@H](C(=O)Nc2ccc(C)cc2C)[C@@H](c2nnc(CCCC(C)(C)C)n2CC(F)(F)F)C1 (racemic) [Example F-356]	< 3 µM
CC(C)CCc1nnc(CCC(=O)NC[C@H](O)c2ccccc2)n1C1CC1 [Example F-103]	> 3 µM
Cc1c(Cl)cccc1NC(=O)CCc1nnc(CN2C(=O)c3ccccc3C2=O)n1C1CC1 [Example F-209]	> 3 µM

same assay, conditions: read-out: LUC EC50 hRORg

SMILES	pEC50
Cc1ccc(NC(=O)C[C@H](CC(O)C(F)(F)F)c2nnc([C@H]3C[C@@H](CC(C)C)C3)n2C2CC2)c(C)c1 (single isomer, unassigned) [Example F-622]	> 5.52
Cc1ccc(NC(=O)C[C@H](CCO)c2nnc(C3CC4(CCC(C)(C)CC4)C3)n2C2CC2)c(C)c1 [Example F-602]	> 5.52
Cc1ccc(NC(=O)[C@H]2CN(S(=O)(=O)C(F)(F)F)C[C@@H]2c2nnc(CCCC(C)(C)C)n2C2CC2)c(C)c1 (racemic) [Example F-527]	> 5.52
Cc1cc(NC(=O)C[C@H](CC(=O)O)c2noc([C@H]3C[C@@H](CC(C)C)C3)c2C2CC2)n(C)n1 [Example F-669]	< 5.52
Cc1c(F)cccc1NC(=O)C[C@H](CCO)c1nnc([C@H]2C[C@@H](CC(F)(F)F)C2)n1C1CC1 [Example F-589]	< 5.52
Cc1ccc(NC(=O)C[C@H](CCCO)c2noc([C@H]3C[C@@H](CC(C)(C)C)C3)c2C2CC2)c(C)n1 [Example F-689]	> 5.52
Cc1ccc(NC(=O)C[C@H](CCC(=O)O)n2nnc([C@H]3C[C@@H](CC(C)(C)C)C3)c2C2CC2)c(F)c1 [Example F-703]	> 5.52
Cc1ccc(NC(=O)CCc2noc(CCCC(C)(C)C)c2C2CC2)c(Cl)c1 [Example F-729]	> 5.52
Cc1ccc(NC(=O)CC(CC(=O)N2CCCC2)c2nnc([C@H]3C[C@@H](CC(C)C)C3)n2C2CC2)c(C)c1 (mixture of isomers) [Example F-501]	> 5.52
COc1c(C)ccc(NC(=O)C[C@H](CCCO)c2noc([C@H]3C[C@@H](CC(C)(C)C)C3)c2C2CC2)c1C [Example F-696]	> 5.52
Cc1ccc(NC(=O)C[C@H](OC(C)C)c2nnc([C@H]3C[C@@H](CC(C)C)C3)n2C2CC2)c(C)c1 [Example F-558]	> 5.52
Cc1ccc(NC(=O)C[C@H](CC(F)(F)F)c2nnc(-c3cc(CC(C)C)on3)n2C2CC2)c(C)c1 [Example F-567]	> 5.52
Cc1ccc(NC(=O)C[C@H](CC(C)C)c2noc(-c3cc(CC(C)C)on3)c2C2CC2)c(C)c1 [Example F-635]	> 5.52
Cc1ccc(NC(=O)CCc2noc(C3(CCO)CC(CC(C)(C)C)C3)c2C2CC2)c(Cl)c1 (mixture of isomers) [Example F-742]	< 5.52
Cc1ccc(NC(=O)CCc2noc(C3(CO)CC(CC(C)(C)C)C3)c2C2CC2)c(Cl)c1 (mixture of isomers) [Example F-730]	> 5.52
Cc1ccc(NC(=O)C[C@H](CCC(=O)O)c2noc([C@H]3C[C@@H](CCc4ccccc4)C3)c2C2CC2)c(Cl)c1 [Example F-700]	> 5.52
COc1cc(C)ccc1CNC(=O)CCc1noc(C23CC4CC(CC(C4)C2)C3)c1C1CC1 [Example F-735]	> 5.52
Cc1ccc(NC(=O)C[C@H](CCO)c2nnc(C3CC4(CCC(F)(F)CC4)C3)n2C2CC2)c(C)c1 [Example F-619]	> 5.52
Cc1ccc(NC(=O)[C@H]2CN(CC(=O)N(C)C)C[C@@H]2c2nnc([C@H]3C[C@@H](CC(C)(C)C)C3)n2C2CC2)c(C)c1 [Example F-652]	> 5.52

Source: patent US20160137639A1, “TRIAZOLE-ISOXAZOLE COMPOUND AND MEDICAL USE THEREOF” (JAPAN TOBACCO INC., priority 2012, published 2016)
